Experimental data reported in patent US20200131177A1, “PESTICIDALLY ACTIVE HETEROCYCLIC DERIVATIVES WITH SULFUR CONTAINING SUBSTITUENTS” (SYNGENTA PARTICIPATIONS AG, priority 2017, published 2020).

Experiments:
Type in all cases: in vivo
[1] = tested on: Spodoptera littoralis (Egyptian Cotton Leaf Worm); experiment: Example B1: Spodoptera littoralis, sprayed cotton leaf discs; conditions: foliar, 72 h, application rate of 200 ppm, L1 larvae, 3 days after infestation, read-out: control (mortality, anti-feeding effect or growth inhibition)
Description: Example B1: Spodoptera littoralis (Egyptian Cotton Leaf Worm)
Cotton leaf discs were placed onto agar in 24-well microtiter plates and sprayed with aqueous test solutions prepared from 10′000 ppm DMSO stock solutions. After drying the leaf discs were infested with five L1 larvae. The samples were assessed for mortality, anti-feeding effect, and growth inhibition in comparison to untreated samples 3 days after infestation. Control of Spodoptera littoralis by a test sample is given when at least one of the categories mortality, anti-feedant effect, and growth inhibition is higher than the untreated sample.

[2] = tested on: Plutella xylostella (Diamond Back Moth); experiment: Example B3: Plutella xylostella, treated artificial diet; conditions: 120 h, application rate of 200 ppm, L2 larvae, 5 days after infestation, read-out: effect in at least one of the two categories (mortality or growth inhibition)
Description: Example B3: Plutella xylostella (Diamond Back Moth)
24-well microtiter plates with artificial diet were treated with aqueous test solutions prepared from 10′000 ppm DMSO stock solutions by pipetting. After drying, the plates were infested with L2 larvae (10 to 15 per well). The samples were assessed for mortality and growth inhibition in comparison to untreated samples 5 days after infestation.

[3] = tested on: Diabrotica balteata (Corn Root Worm); experiment: Example B4: Diabrotica balteata, sprayed maize sprouts; conditions: 96 h, application rate of 200 ppm, L2 larvae, 4 days after infestation, read-out: effect in at least one of the two categories (mortality or growth inhibition)
Description: Example B4: Diabrotica balteata (Corn Root Worm)
Maize sprouts placed onto an agar layer in 24-well microtiter plates were treated with aqueous test solutions prepared from 10′000 ppm DMSO stock solutions by spraying. After drying, the plates were infested with L2 larvae (6 to 10 per well). The samples were assessed for mortality and growth inhibition in comparison to untreated samples 4 days after infestation.

[4] = tested on: Myzus persicae (Green Peach Aphid); experiment: Example B5: Myzus persicae, sprayed sunflower leaf discs; conditions: foliar, 144 h, application rate of 200 ppm, aphid population of mixed ages, 6 days after infestation
Description: Example B5: Myzus persicae (Green Peach Aphid)
Sunflower leaf discs were placed onto agar in a 24-well microtiter plate and sprayed with aqueous test solutions prepared from 10′000 ppm DMSO stock solutions. After drying, the leaf discs were infested with an aphid population of mixed ages. The samples were assessed for mortality 6 days after infestation.

[5] = tested on: Myzus persicae (Green Peach Aphid); experiment: Example B6: Myzus persicae, roots of pea seedlings in test solution; conditions: 144 h, test rate of 24 ppm, aphid population of mixed ages, 6 days after placing seedlings into test solutions
Description: Example B6: Myzus persicae (Green Peach Aphid)
Roots of pea seedlings infested with an aphid population of mixed ages were placed directly into aqueous test solutions prepared from 10′000 DMSO stock solutions. The samples were assessed for mortality 6 days after placing seedlings into test solutions.

[6] = tested on: Bemisia tabaci (Cotton White Fly); experiment: Example B8: Bemisia tabaci, sprayed cotton leaf discs; conditions: foliar, 144 h, application rate of 200 ppm, adult white flies, 6 days after incubation
Description: Example B8: Bemisia tabaci (Cotton White Fly)
Cotton leaf discs were placed on agar in 24-well microtiter plates and sprayed with aqueous test solutions prepared from 10′000 ppm DMSO stock solutions. After drying the leaf discs were infested with adult white flies. The samples were checked for mortality 6 days after incubation.

[7] = tested on: Euschistus heros (Neotropical Brown Stink Bug); experiment: Example B9: Euschistus heros, sprayed soybean leaves; conditions: 120 h, application rate of 200 ppm, N2 nymphs, 5 days after infestation, read-out: effect in at least one of the two categories (mortality or growth inhibition)
Description: Example B9: Euschistus heros (Neotropical Brown Stink Bug)
Soybean leaves on agar in 24-well microtiter plates were sprayed with aqueous test solutions prepared from 10′000 ppm DMSO stock solutions. After drying the leaves were infested with N2 nymphs. The samples were assessed for mortality and growth inhibition in comparison to untreated samples 5 days after infestation.

[8] = tested on: Frankliniella occidentalis (Western Flower Thrips); experiment: Example B12: Frankliniella occidentalis, sprayed sunflower leaf discs; conditions: foliar, 168 h, application rate of 200 ppm, population of mixed ages, 7 days after infestation
Description: Example B12: Frankliniella occidentalis (Western Flower Thrips)
Sunflower leaf discs were placed on agar in 24-well microtiter plates and sprayed with aqueous test solutions prepared from […] stock solutions. After drying the leaf discs were infested with a Frankliniella population of mixed ages. The samples were assessed for mortality 7 days after infestation.

[9] = tested on: Tetranychus urticae (Two-Spotted Spider Mite); experiment: Example B10: Tetranychus urticae, sprayed bean leaf discs; conditions: foliar, 192 h
Description: Example B10: Tetranychus urticae (Two-Spotted Spider Mite)
Bean leaf discs on agar in 24-well microtiter plates were sprayed with aqueous test solutions prepared from 10′000 ppm DMSO stock solutions. After drying the leaf discs were infested with a mite population of mixed ages. The samples were assessed for mortality on mixed population (mobile stages) 8 days after infestation.

CCS(=O)(=O)c1cc(C(F)(F)F)cnc1-c1nc2cc(S(=O)(=O)C(F)F)ncc2n1C [Compound P1, 6-(difluoromethylsulfonyl)-2-[3-ethylsulfonyl-5-(trifluoromethyl)-2-pyridyl]-3-methyl-imidazo[4,5-c]pyridine]
≥ 80%: percent control (mortality, anti-feedant effect or growth inhibition) at 200 ppm [1] | percent effect (mortality or growth inhibition) at 200 ppm [2] | percent effect (mortality or growth inhibition) at 200 ppm [3] | mortality at 200 ppm [4] | mortality at 24 ppm [5] | mortality at 200 ppm [6] | percent effect (mortality or growth inhibition) at 200 ppm [7]

CCS(=O)(=O)c1cc(C(F)(F)F)cnc1-c1nc2cc([S+]([O-])C(F)F)ncc2n1C (stereo not drawn) [Compound P2, 6-(difluoromethylsulfinyl)-2-[3-ethylsulfonyl-5-(trifluoromethyl)-2-pyridyl]-3-methyl-imidazo[4,5-c]pyridine]
≥ 80%: percent control (mortality, anti-feedant effect or growth inhibition) at 200 ppm [1] | percent effect (mortality or growth inhibition) at 200 ppm [2] | percent effect (mortality or growth inhibition) at 200 ppm [3] | mortality at 200 ppm [4] | mortality at 24 ppm [5] | mortality at 200 ppm [6] | percent effect (mortality or growth inhibition) at 200 ppm [7]

CCS(=O)(=O)c1cc(C(F)(F)F)cnc1-c1nc2cc(SC(F)F)ncc2n1C [Compound P3, 6-(difluoromethylsulfanyl)-2-[3-ethylsulfonyl-5-(trifluoromethyl)-2-pyridyl]-3-methyl-imidazo[4,5-c]pyridine]
≥ 80%: percent control (mortality, anti-feedant effect or growth inhibition) at 200 ppm [1] | percent effect (mortality or growth inhibition) at 200 ppm [2] | percent effect (mortality or growth inhibition) at 200 ppm [3] | mortality at 200 ppm [4] | mortality at 24 ppm [5] | mortality at 200 ppm [6] | percent effect (mortality or growth inhibition) at 200 ppm [7] | mortality at 200 ppm [8]

CCS(=O)(=O)c1cccnc1-c1nc2cc([S+]([O-])C(F)F)ncc2n1C (stereo not drawn) [Compound P4]
≥ 80%: percent effect (mortality or growth inhibition) at 200 ppm [3] | mortality at 200 ppm [4] | mortality at 24 ppm [5] | percent effect (mortality or growth inhibition) at 200 ppm [7]

CCS(=O)(=O)c1cccnc1-c1nc2cc(SC(F)F)ncc2n1C [Compound P6, 6-(difluoromethylsulfanyl)-2-(3-ethylsulfonyl-2-pyridyl)-3-methyl-imidazo[4,5-c]pyridine]
≥ 80%: percent effect (mortality or growth inhibition) at 200 ppm [3] | mortality at 200 ppm [4] | mortality at 24 ppm [5] | percent effect (mortality or growth inhibition) at 200 ppm [7]

CCS(=O)(=O)c1ccc(-n2cncn2)nc1-c1nc2cc(S(=O)(=O)C(F)F)ncc2n1C [Compound P7, 6-(difluoromethylsulfonyl)-2-[3-ethylsulfonyl-6-(1,2,4-triazol-1-yl)-2-pyridyl]-3-methyl-imidazo[4,5-c]pyridine]
≥ 80%: percent effect (mortality or growth inhibition) at 200 ppm [3] | mortality at 200 ppm [4] | mortality at 24 ppm [5] | percent effect (mortality or growth inhibition) at 200 ppm [7]

CCS(=O)(=O)c1ccc(-n2cncn2)nc1-c1nc2cc([S+]([O-])C(F)F)ncc2n1C (stereo not drawn) [Compound P8, 6-(difluoromethylsulfinyl)-2-[3-ethylsulfonyl-6-(1,2,4-triazol-1-yl)-2-pyridyl]-3-methyl-imidazo[4,5-c]pyridine]
≥ 80%: percent effect (mortality or growth inhibition) at 200 ppm [3] | mortality at 200 ppm [4] | mortality at 24 ppm [5] | mortality at 200 ppm [6] | percent effect (mortality or growth inhibition) at 200 ppm [7]

CCS(=O)(=O)c1ccc(-n2cncn2)nc1-c1nc2cc(SC(F)F)ncc2n1C [Compound P9, 6-(difluoromethylsulfanyl)-2-[3-ethylsulfonyl-6-(1,2,4-triazol-1-yl)-2-pyridyl]-3-methyl-imidazo[4,5-c]pyridine]
≥ 80%: percent control (mortality, anti-feedant effect or growth inhibition) at 200 ppm [1] | percent effect (mortality or growth inhibition) at 200 ppm [3] | mortality at 200 ppm [4] | mortality at 24 ppm [5] | mortality at 200 ppm [6] | percent effect (mortality or growth inhibition) at 200 ppm [7]

CCS(=O)(=O)c1cc(OC(C)C)cnc1-c1nc2cc(S(=O)(=O)C(F)F)ncc2n1C [Compound P10, 6-(difluoromethylsulfonyl)-2-(3-ethylsulfonyl-5-isopropoxy-2-pyridyl)-3-methyl-imidazo[4,5-c]pyridine]
≥ 80%: percent control (mortality, anti-feedant effect or growth inhibition) at 200 ppm [1] | percent effect (mortality or growth inhibition) at 200 ppm [2] | mortality at 200 ppm [4] | mortality at 24 ppm [5] | percent effect (mortality or growth inhibition) at 200 ppm [7] | mortality at 200 ppm [9]

CCS(=O)(=O)c1cc(OC(C)C)cnc1-c1nc2cc([S+]([O-])C(F)F)ncc2n1C (stereo not drawn) [Compound P11, 6-(difluoromethylsulfinyl)-2-(3-ethylsulfonyl-5-isopropoxy-2-pyridyl)-3-methyl-imidazo[4,5-c]pyridine]
≥ 80%: percent control (mortality, anti-feedant effect or growth inhibition) at 200 ppm [1] | percent effect (mortality or growth inhibition) at 200 ppm [2] | mortality at 200 ppm [4] | mortality at 24 ppm [5] | percent effect (mortality or growth inhibition) at 200 ppm [7] | mortality at 200 ppm [9]

CCS(=O)(=O)c1cc(OC(C)C)cnc1-c1nc2cc(SC(F)F)ncc2n1C [Compound P12, 6-(difluoromethylsulfanyl)-2-(3-ethylsulfonyl-5-isopropoxy-2-pyridyl)-3-methyl-imidazo[4,5-c]pyridine]
≥ 80%: percent control (mortality, anti-feedant effect or growth inhibition) at 200 ppm [1] | percent effect (mortality or growth inhibition) at 200 ppm [2] | percent effect (mortality or growth inhibition) at 200 ppm [3] | mortality at 200 ppm [4] | mortality at 24 ppm [5] | percent effect (mortality or growth inhibition) at 200 ppm [7]
